The values that follow come from PubChem BioAssay (NCI).

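Values below derive from 48-hour exposures of cells grown in 96-well plates, with endpoints linearly interpolated between the two concentrations bracketing the appropriate inhibition level. Definition used: TGI = concentration required for complete inhibition of growth.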 Where only a bound is given, the exact number is not on record here.

In one test the test system is HCC-2998 colon. Kind of test: NCI-60 cell line screen, 48 h.
`C=CCOc1ccc(/C(N=Nc2ccc([N+](=O)[O-])cc2)=N/NC(=O)c2ccccc2)cc1OC` showed a TGI of more than 100 µM.
The same measure, in the same setting: the value for `NC(=O)N/N=C1\CCCCc2ccccc21` was more than 10 µM; that for `CCOC(=O)c1ccc(N=C2C(=S)N(c3ccc(C(=O)OCC)cc3)C(=N)N2/N=C/c2ccccc2)cc1` was 58 µM.

For another test, the system named is KM12 colon. Kind of test: NCI-60 cell line screen, 48 h.
Turning to `COc1ccc2oc(=N)c(C(=O)NCc3ccccc3)cc2c1`, the TGI came to 29.6 µM.
Still for that read-out and setting: the value for `CCNCCNc1c2ccccc2nc2ccccc12` was 4.79 µM; that for `CCOC(=O)c1c(N)sc2c1C(C(=O)OCC)CC2` (centres undefined) was more than 100 µM; that for `CC(=O)OCC1OC(SC2=N/C(=C\c3cc4c(=O)c5ccccc5sc4s3)C(=O)N2c2ccccc2)C(OC(C)=O)C(OC(C)=O)C1OC(C)=O` (centres undefined) was more than 100 µM.
Same read-out and setting: the value for `CCOC(=O)N(Cc1cccs1)c1cc(OC)c(OC)c(OC)c1` was more than 100 µM; that for `COc1ccc(/C=C2\C(=O)N(C3OC(COC(C)=O)C(OC(C)=O)C(OC(C)=O)C3OC(C)=O)c3ccccc3N=C2N)cc1` (centres undefined) was more than 100 µM; that for `O=S(=O)(O)c1ccc(O)c2ncc(Cl)cc12` was more than 100 µM.
Still for that read-out and setting: the value for `N=c1oc2cc(O)ccc2cc1C(=O)NCc1ccccc1` was more than 100 µM; that for `COc1cc(/C=C/C(=O)c2ccc(NS(=O)(=O)c3cc([N+](=O)[O-])ccc3C)cc2)cc(OC)c1OC` was 8.02 µM.
As for `C=CCOc1ccc(/C(N=Nc2ccc([N+](=O)[O-])cc2)=N/NC(=O)c2ccccc2)cc1OC`, the TGI is more than 100 µM.
`NC(=O)N/N=C1\CCCCc2ccccc21` registered a TGI of more than 10 µM.
The same measure, in the same setting: the value for `CCOC(=O)c1ccc(N=C2C(=S)N(c3ccc(C(=O)OCC)cc3)C(=N)N2/N=C/c2ccccc2)cc1` was 31.2 µM.

The next test deals with OVCAR-3 ovarian. The test can be described thus: NCI-60 cell line screen, 48 h.
In turn, `COc1ccc2oc(=N)c(C(=O)NCc3ccccc3)cc2c1` came in with a TGI of more than 100 µM.
The same measure, in the same setting: the value for `CC(=O)N1C(c2[nH]c3ccccc3c2-c2ccccc2)CCN1c1ccccc1` (centres undefined) was more than 10 µM.
Compound `CC(=O)N1C(Nc2ccccn2)CCN1c1ccccc1` (centres undefined) yielded a TGI of more than 10 µM.
On the same count and under the same terms, the value for `CCNCCNc1c2ccccc2nc2ccccc12` was 24.5 µM.
On the same count and under the same terms, the value for `CC(=O)OCC1OC(SC2=N/C(=C\c3cc4c(=O)c5ccccc5sc4s3)C(=O)N2c2ccccc2)C(OC(C)=O)C(OC(C)=O)C1OC(C)=O` (centres undefined) was more than 100 µM; that for `CCCC1(NC(=O)C(F)(F)F)CC(OC)OC2COC(c3ccccc3)OC21` (centres undefined) was more than 100 µM; that for `COC(O)C(=O)c1c2c(cc3c1CC1(Cc4cc5c(cc4C1)CCC5)C3)CCC2` (centres undefined) was 28.9 µM.
The same measure, in the same setting: the value for `CCOC(=O)N(Cc1cccs1)c1cc(OC)c(OC)c(OC)c1` was more than 100 µM.
`COc1ccc(/C=C2\C(=O)N(C3OC(COC(C)=O)C(OC(C)=O)C(OC(C)=O)C3OC(C)=O)c3ccccc3N=C2N)cc1` (centres undefined) showed a TGI of 65.1 µM.
For the compound `O=S(=O)(O)c1ccc(O)c2ncc(Cl)cc12`, the TGI was more than 100 µM.
Turning to `N=c1oc2cc(O)ccc2cc1C(=O)NCc1ccccc1`, the TGI worked out at 57.9 µM.
Same read-out and setting: the value for `COc1cc(/C=C/C(=O)c2ccc(NS(=O)(=O)c3cc([N+](=O)[O-])ccc3C)cc2)cc(OC)c1OC` was 11.5 µM.
Same read-out and setting: the value for `C=CCOc1ccc(/C(N=Nc2ccc([N+](=O)[O-])cc2)=N/NC(=O)c2ccccc2)cc1OC` was more than 100 µM; that for `NC(=O)N/N=C1\CCCCc2ccccc21` was more than 10 µM.
Same read-out and setting: the value for `CCOC(=O)c1ccc(N=C2C(=S)N(c3ccc(C(=O)OCC)cc3)C(=N)N2/N=C/c2ccccc2)cc1` was 28.8 µM.

Another test deals with OVCAR-4 ovarian. Kind of test: NCI-60 cell line screen, 48 h.
The compound `COc1ccc2oc(=N)c(C(=O)NCc3ccccc3)cc2c1` had a TGI of more than 100 µM.
Still for that read-out and setting: the value for `CC(=O)N1C(c2[nH]c3ccccc3c2-c2ccccc2)CCN1c1ccccc1` (centres undefined) was more than 10 µM.
Still for that read-out and setting: the value for `CC(=O)N1C(Nc2ccccn2)CCN1c1ccccc1` (centres undefined) was more than 10 µM; that for `CCNCCNc1c2ccccc2nc2ccccc12` was 11.1 µM; that for `CC(=O)OCC1OC(SC2=N/C(=C\c3cc4c(=O)c5ccccc5sc4s3)C(=O)N2c2ccccc2)C(OC(C)=O)C(OC(C)=O)C1OC(C)=O` (centres undefined) was more than 100 µM.
Still for that read-out and setting: the value for `CCCC1(NC(=O)C(F)(F)F)CC(OC)OC2COC(c3ccccc3)OC21` (centres undefined) was more than 100 µM; that for `COC(O)C(=O)c1c2c(cc3c1CC1(Cc4cc5c(cc4C1)CCC5)C3)CCC2` (centres undefined) was 33.9 µM; that for `CCOC(=O)N(Cc1cccs1)c1cc(OC)c(OC)c(OC)c1` was more than 100 µM.
Compound `COc1ccc(/C=C2\C(=O)N(C3OC(COC(C)=O)C(OC(C)=O)C(OC(C)=O)C3OC(C)=O)c3ccccc3N=C2N)cc1` (centres undefined) gave a TGI of more than 100 µM.
As to `O=S(=O)(O)c1ccc(O)c2ncc(Cl)cc12`, the TGI was more than 100 µM.
Same read-out and setting: the value for `N=c1oc2cc(O)ccc2cc1C(=O)NCc1ccccc1` was more than 100 µM; that for `COc1cc(/C=C/C(=O)c2ccc(NS(=O)(=O)c3cc([N+](=O)[O-])ccc3C)cc2)cc(OC)c1OC` was 13.5 µM; that for `C=CCOc1ccc(/C(N=Nc2ccc([N+](=O)[O-])cc2)=N/NC(=O)c2ccccc2)cc1OC` was more than 100 µM.
Still for that read-out and setting: the value for `NC(=O)N/N=C1\CCCCc2ccccc21` was more than 10 µM.

A further test relates to CAKI-1 renal. The test can be described thus: NCI-60 cell line screen, 48 h.
For the compound `COc1ccc2oc(=N)c(C(=O)NCc3ccccc3)cc2c1`, the TGI is more than 100 µM.
Same read-out and setting: the value for `CC(=O)N1C(c2[nH]c3ccccc3c2-c2ccccc2)CCN1c1ccccc1` (centres undefined) was more than 10 µM; that for `CC(=O)N1C(Nc2ccccn2)CCN1c1ccccc1` (centres undefined) was more than 10 µM; that for `CCNCCNc1c2ccccc2nc2ccccc12` was 3.48 µM.
The same measure, in the same setting: the value for `CC(=O)OCC1OC(SC2=N/C(=C\c3cc4c(=O)c5ccccc5sc4s3)C(=O)N2c2ccccc2)C(OC(C)=O)C(OC(C)=O)C1OC(C)=O` (centres undefined) was more than 100 µM; that for `CCCC1(NC(=O)C(F)(F)F)CC(OC)OC2COC(c3ccccc3)OC21` (centres undefined) was more than 100 µM.
Same read-out and setting: the value for `COC(O)C(=O)c1c2c(cc3c1CC1(Cc4cc5c(cc4C1)CCC5)C3)CCC2` (centres undefined) was 37.4 µM; that for `CCOC(=O)N(Cc1cccs1)c1cc(OC)c(OC)c(OC)c1` was more than 100 µM.
Turning to `COc1ccc(/C=C2\C(=O)N(C3OC(COC(C)=O)C(OC(C)=O)C(OC(C)=O)C3OC(C)=O)c3ccccc3N=C2N)cc1` (centres undefined), the TGI is more than 100 µM.
On to `O=S(=O)(O)c1ccc(O)c2ncc(Cl)cc12`, for which the TGI was more than 100 µM.
The same measure, in the same setting: the value for `N=c1oc2cc(O)ccc2cc1C(=O)NCc1ccccc1` was 69.7 µM.
Still for that read-out and setting: the value for `COc1cc(/C=C/C(=O)c2ccc(NS(=O)(=O)c3cc([N+](=O)[O-])ccc3C)cc2)cc(OC)c1OC` was 17.3 µM; that for `C=CCOc1ccc(/C(N=Nc2ccc([N+](=O)[O-])cc2)=N/NC(=O)c2ccccc2)cc1OC` was more than 100 µM.
Take `NC(=O)N/N=C1\CCCCc2ccccc21`: the TGI is more than 10 µM.
Consider `CCOC(=O)c1ccc(N=C2C(=S)N(c3ccc(C(=O)OCC)cc3)C(=N)N2/N=C/c2ccccc2)cc1`, for which the TGI turned out to be 42.2 µM.

In the next test the test system is SN12C renal. The test can be described thus: NCI-60 cell line screen, 48 h.
The compound `COc1ccc2oc(=N)c(C(=O)NCc3ccccc3)cc2c1` came in with a TGI of more than 100 µM.
Still for that read-out and setting: the value for `CC(=O)N1C(c2[nH]c3ccccc3c2-c2ccccc2)CCN1c1ccccc1` (centres undefined) was more than 10 µM.
With `CC(=O)N1C(Nc2ccccn2)CCN1c1ccccc1` (centres undefined), the TGI was more than 10 µM.
Compound `CCNCCNc1c2ccccc2nc2ccccc12` returned a TGI of 4.91 µM.
Compound `CCOC(=O)c1c(N)sc2c1C(C(=O)OCC)CC2` (centres undefined) came in with a TGI of more than 100 µM.
The same measure, in the same setting: the value for `CC(=O)OCC1OC(SC2=N/C(=C\c3cc4c(=O)c5ccccc5sc4s3)C(=O)N2c2ccccc2)C(OC(C)=O)C(OC(C)=O)C1OC(C)=O` (centres undefined) was more than 100 µM; that for `CCCC1(NC(=O)C(F)(F)F)CC(OC)OC2COC(c3ccccc3)OC21` (centres undefined) was more than 100 µM.
In the case of `CCOC(=O)N(Cc1cccs1)c1cc(OC)c(OC)c(OC)c1`, the TGI is more than 100 µM.
`COc1ccc(/C=C2\C(=O)N(C3OC(COC(C)=O)C(OC(C)=O)C(OC(C)=O)C3OC(C)=O)c3ccccc3N=C2N)cc1` (centres undefined) yielded a TGI of more than 100 µM.
Same read-out and setting: the value for `O=S(=O)(O)c1ccc(O)c2ncc(Cl)cc12` was more than 100 µM.
